The values below come from PubChem BioAssay AID1897 (NMMLSC, 2009).

Calls of active or inactive are those of the source. The rule behind the calls is not given here.

One may read the EC50 as the concentration giving half of the maximal effect. A word on the Ki: it is the dissociation constant of the complex between target and ligand, obtained from inhibition or displacement.

The target of the first assay is Mitogen-activated protein kinase kinase kinase 2 (Homo sapiens) + Dual specificity mitogen-activated protein kinase kinase 5 (Homo sapiens) (UniProt Q9Y2U5+Q13163). As to the kind of experiment: MEKK2 PB1-MEK5 interaction blockers – biochemical, bead multiplex flow cytometry, wildtype, dose response (AID 1897). Conditions: MEK5-MEKK2 PB1 binding. On the technique in general: A flow cytometer gives signals particle by particle.
Mitogen-activated protein kinase kinase kinase 2 (Homo sapiens) + Dual specificity mitogen-activated protein kinase kinase 5 (Homo sapiens), sequence (Q13163 whole entry, looked up): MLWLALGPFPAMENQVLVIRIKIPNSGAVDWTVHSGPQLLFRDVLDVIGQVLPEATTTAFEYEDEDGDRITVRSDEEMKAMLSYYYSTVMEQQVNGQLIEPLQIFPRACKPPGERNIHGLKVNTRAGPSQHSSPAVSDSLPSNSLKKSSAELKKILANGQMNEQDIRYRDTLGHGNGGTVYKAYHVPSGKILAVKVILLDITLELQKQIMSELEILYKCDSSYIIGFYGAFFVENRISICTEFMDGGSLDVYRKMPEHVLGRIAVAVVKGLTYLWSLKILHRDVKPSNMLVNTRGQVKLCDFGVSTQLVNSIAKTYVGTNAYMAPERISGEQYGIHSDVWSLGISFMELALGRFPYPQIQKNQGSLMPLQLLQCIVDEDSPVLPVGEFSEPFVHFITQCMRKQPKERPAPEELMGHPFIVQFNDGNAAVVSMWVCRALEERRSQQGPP
Mitogen-activated protein kinase kinase kinase 2 (Homo sapiens) + Dual specificity mitogen-activated protein kinase kinase 5 (Homo sapiens), sequence (Q9Y2U5 whole entry, looked up): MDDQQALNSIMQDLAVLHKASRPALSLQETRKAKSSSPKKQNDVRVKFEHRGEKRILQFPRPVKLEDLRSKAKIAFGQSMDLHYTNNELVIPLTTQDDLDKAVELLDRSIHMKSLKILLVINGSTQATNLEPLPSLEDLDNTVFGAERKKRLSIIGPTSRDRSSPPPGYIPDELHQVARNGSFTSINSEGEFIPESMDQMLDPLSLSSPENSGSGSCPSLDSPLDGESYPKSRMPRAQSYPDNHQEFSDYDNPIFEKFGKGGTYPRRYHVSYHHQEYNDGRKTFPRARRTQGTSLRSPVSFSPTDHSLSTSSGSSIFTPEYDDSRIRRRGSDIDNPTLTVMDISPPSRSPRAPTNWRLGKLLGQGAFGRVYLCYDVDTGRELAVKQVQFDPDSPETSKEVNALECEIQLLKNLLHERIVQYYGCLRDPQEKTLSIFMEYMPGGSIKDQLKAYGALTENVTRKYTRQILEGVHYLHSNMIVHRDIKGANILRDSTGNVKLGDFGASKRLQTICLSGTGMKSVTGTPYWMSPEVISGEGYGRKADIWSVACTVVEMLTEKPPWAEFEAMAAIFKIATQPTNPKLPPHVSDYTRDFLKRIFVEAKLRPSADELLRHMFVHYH
As for `CCCN(CCC)CCNC(=O)c1cc2c(-c3ccc(Cl)cc3)nn(C)c2s1`, the EC50 is 15.1 µM.

Turning to `NC(N)=N/N=C/c1ccc(OCc2ccccc2Cl)cc1`, the EC50 is 19.2 µM.

As to `C#CCOCCOCCOCCNc1nc(N2CCN(C(=O)C(Cc3cc4ccccc4[nH]3)n3cc(C(N)C(C)CC)nn3)CC2)nc(N2CCN(C(=O)C(Cc3cc4ccccc4[nH]3)n3cc(C(N)C(C)CC)nn3)CC2)n1` (stereo not given), the EC50 is 1.75 µM.

Consider `CCCCCCCCCCOC(=O)Cn1c(COc2cccc(C)c2)[n+](C)c2ccccc21`, for which the EC50 is > 30 µM (inactive).

For the molecule `CCOC(=O)c1c(-c2ccc(-c3ccccc3)cc2)csc1NC(=O)CNCCN(C)C`, the EC50 is 1.55 µM.

Take `COc1cc(CNCCc2c[nH]c3ccccc23)ccc1OCc1ccccc1F`: the EC50 is > 30 µM (inactive).

Turning to `CCCN1C(=O)/C(=C\C=C2/Sc3ccccc3N2CC)SC1=S`, the EC50 is 3.03 µM.

As for `CCCCCCCCCCOC(=O)Cn1c(COc2ccc(C)cc2)[n+](C)c2ccccc21`, the EC50 is 1.8 µM.

Regarding `COc1ccc(N2CC(C(=O)Nc3nnc(SCc4ccccn4)s3)CC2=O)cc1` (stereo not given), the EC50 is > 30 µM (inactive).

On to `Cc1nc(Nc2cnc(/C=C/c3cc(C(=O)Nc4cccc(C(F)(F)F)c4)ccc3C)cn2)cc(N2CCNCC2)n1`, for which the EC50 was > 30 µM (inactive).

Turning to `COc1ccc2nc(C)cc(N/N=C/c3cccc(OC)c3O)c2c1`, the EC50 is > 30 µM (inactive).

As for `C#CCOCCOCCOCCNc1nc(N2CCN(C(=O)[C@H](Cc3cc4ccccc4[nH]3)n3cc([C@@H](N)C(C)CC)nn3)CC2)nc(N2CCN(C(=O)[C@H](Cc3cc4ccccc4[nH]3)n3cc([C@@H](N)CC(C)C)nn3)CC2)n1` (stereo not given in full), the EC50 is 2.69 µM.

With `CCOC(=O)C1=C(c2ccccc2)NC(N)=NC1c1ccc(OCc2ccc(Cl)cc2)c(OC)c1` (stereo not given), the EC50 was 0.58 µM.

Regarding `COc1cccc(OC)c1-c1nn2c(-c3cc(-c4ccccc4)n[nH]3)nnc2s1`, the EC50 is 5.32 µM.

With `CCCSc1ncnc2sc(C)c(C)c12`, the EC50 is > 30 µM (inactive).

Turning to `S=c1[nH]nc(-c2ccc(Cl)cc2)n1-c1ccc2c(c1)OCCO2`, the EC50 was > 30 µM (inactive).

As for `C/C(=N\NC(=O)c1cc(O)cc(O)c1)c1ccc(NC(=O)Cc2ccccc2)cc1`, the EC50 was > 30 µM (inactive).

As for `CNc1nc(-c2c[nH]c3ccccc23)cs1`, the EC50 is > 30 µM (inactive).

For `CC(C)n1cc(CN2CCC(C(=O)Nc3cccc(-c4cccc(Cl)c4)c3)CC2)cn1`, the EC50 was > 30 µM (inactive).

Take `CCN(CC)CCNC(=O)c1ccc(NC(=O)c2cn(-c3ccccc3)nc2-c2cccs2)cc1`: the concentration for a half-maximal effect (EC50) was 5.94 µM.

As to `Nc1ccc2nc(-c3ccc(-c4nc5ccc(N)cc5[nH]4)cc3)[nH]c2c1`, the EC50 is > 30 µM (inactive).

`CN(C)c1ccc(/C=C/C=C2/SC(=S)N(c3ccccc3)C2=O)cc1`: the EC50 was 0.95 µM.

In the case of `N=C(N)SCc1cn(-c2ccccc2)nc1-c1ccc(Br)cc1`, the EC50 is 3.13 µM.

In the case of `CN(C)CCNc1ncnc2c1sc1nc(-c3ccccc3)c3c(c12)CCCC3`, the EC50 is 3.37 µM.

Regarding `Cc1cc2ccccc2n1CCNC(=O)c1ccc(Br)o1`, the EC50 was 3.48 µM.

For the molecule `C#CCOCCOCCOCCNc1nc(N2CCN(C(=O)[C@H]([C@@H](C)CC)n3cc([C@@H](N)Cc4ccc(O)cc4)nn3)CC2)nc(N2CCN(C(=O)[C@H](Cc3cc4ccccc4[nH]3)n3cc([C@@H](N)C(C)CC)nn3)CC2)n1` (stereo not given in full), the 50% effective concentration (EC50) was 3.73 µM.

With `O=C(Nc1ccc(C2=NCCN2)cc1)c1ccc(C(=O)Nc2ccc(C3=NCCN3)cc2)c([N+](=O)[O-])c1`, the EC50 is > 30 µM (inactive).

In the case of `C#CCOCCOCCOCCNc1nc(N2CCN(C(=O)[C@H]([C@@H](C)CC)n3cc([C@@H](N)Cc4ccc(O)cc4)nn3)CC2)nc(N2CCN(C(=O)[C@H](CCCCN)n3cc([C@@H](N)CC(C)C)nn3)CC2)n1`, the EC50 is 10.1 µM.

As to `CN1CCN(CC(O)COc2ccc(C34CC5CC(CC(C5)C3)C4)cc2)CC1` (stereo not given), the EC50 was > 30 µM (inactive).

`COc1ccc2nc(C)cc(N/N=C/c3ccc(F)cc3)c2c1`: the EC50 was > 30 µM (inactive).

Consider `COc1ccc2[nH]c3c(C)c4ccncc4c(C)c3c2c1`, for which the EC50 was > 30 µM (inactive).

For `CCOC(=O)N1CCN(c2c(N3CCN(c4ccccc4F)CC3)c(=O)c2=O)CC1`, the EC50 was > 30 µM (inactive).

Take `CCc1ccc(-c2nn(-c3ccccc3)cc2CSC(=N)N)cc1`: the EC50 is 5.12 µM.

Take `C=CC#CC[N+]1(CC#Cc2ccccc2)CCOCC1`: the EC50 is > 30 µM (inactive).

With `COc1cc(/C=N/NC(=O)c2cc3ccccc3cc2O)ccc1OCCN1CCCCC1`, the EC50 was > 30 µM (inactive).

Regarding `CCc1ccc(Nc2n[n+](-c3ccccc3)c(-c3cc(OC)c(OC)cc3Br)s2)cc1`, the EC50 was 5.06 µM.

Take `C#CCOCCOCCOCCNc1nc(N2CCN(C(=O)[C@H](Cc3cc4ccccc4[nH]3)n3cc([C@@H](N)C(C)CC)nn3)CC2)nc(N2CCN(C(=O)[C@H](Cc3cc4ccccc4[nH]3)n3cc([C@@H](N)Cc4ccc(O)cc4)nn3)CC2)n1` (stereo not given in full): the EC50 is 1.01 µM.

Take `CC(=O)c1c(C)[nH]c(C(=O)NC2=NCCS2)c1C`: the EC50 is > 30 µM (inactive).

For `COc1ccccc1N1CCN(S(=O)(=O)c2ccc(Cl)s2)CC1`, the EC50 is > 30 µM (inactive).

With `Nc1cc2nc[nH]c2cc1N`, the EC50 is 10.7 µM.

Consider `CCN1C(c2ccccc2)=C(c2ccccc2)S/C1=C/C=C1\SC(=S)N(C)C1=O`, for which the concentration for a half-maximal effect (EC50) was 2.73 µM.

Turning to `CCN1CCN(Cc2ccc(NC(=O)c3cc(NC(=O)C(=O)c4c[nH]c5ccccc45)cc(OC)c3)cc2C(F)(F)F)CC1`, the EC50 is 0.34 µM.

Turning to `N#CC(C#N)=c1ccc2c(c1)N1C(c3ccccc3)=CC(c3ccccc3)C3CCCCC31N=2` (stereo not given), the EC50 was 1.95 µM.

As for `Cc1ccc(CN2CCSc3ccc(C(=O)NC4CCN(Cc5ccccc5)CC4)cc32)cc1`, the EC50 was 5.13 µM.

In the case of `CCN1/C(=C\c2ccc3cc(C)ccc3[n+]2CC)Sc2cc(C)c(C)cc21`, the EC50 was > 30 µM (inactive).

For the molecule `C#CCOCCOCCOCCNc1nc(N2CCN(C(=O)C([C@@H](C)CC)n3cc(C(N)COC(=O)C(F)(F)F)nn3)CC2)nc(N2CCN(C(=O)[C@H](CCCCN)n3cc(C(N)[C@H](C)CC)nn3)CC2)n1` (stereo not given in full), the EC50 is > 30 µM (inactive).

Consider `CCCCCCCCCCOC(=O)Cn1c(COc2cccc(OC)c2)[n+](C)c2ccccc21`, for which the EC50 is 4.33 µM.

As for `CCN(CC)CCOC(=O)c1ccc(NC(=O)c2cn(-c3ccccc3)nc2-c2cccs2)cc1`, the EC50 is > 30 µM (inactive).

Turning to `CCN(CC)CCOC(=O)c1ccc(N/C=C(/C#N)c2nc(-c3ccc4c(c3)OCO4)cs2)cc1`, the EC50 was > 30 µM (inactive).

For the molecule `COc1ccc(C2NCCc3c2[nH]c2ccccc32)cc1CN1CCc2cc(OC)c(OC)cc2C1C` (stereo not given), the EC50 was 10.5 µM.

Take `CC(=O)Nc1ccc(OCC(O)Cn2c3ccccc3c3ccccc32)cc1` (stereo not given): the EC50 was > 30 µM (inactive).

Consider `CCCCCCCCCC[N+](C)(C)CC/C=C1/c2ccccc2Sc2ccc(Cl)cc21`, for which the EC50 is 2.24 µM.

On to `CCCCCc1cc(=O)oc2c(C(CCN3CCCC3)c3ccc(N(C)C)cc3)c(OC)cc(OC)c12` (stereo not given), for which the EC50 was 20.9 µM.

Staying with this assay, now noted: MEK5-MEKK2 PB1 binding, measured here: Ki from binding competition.
Regarding `CCCN1C(=O)/C(=C\C=C2/Sc3ccccc3N2CC)SC1=S`, the Ki was determined as 2.71 µM.

Take `COc1cccc(OC)c1-c1nn2c(-c3cc(-c4ccccc4)n[nH]3)nnc2s1`: the Ki is 4.76 µM.

With `CN(C)c1ccc(/C=C/C=C2/SC(=S)N(c3ccccc3)C2=O)cc1`, the Ki was 0.85 µM.

`Cc1cc2ccccc2n1CCNC(=O)c1ccc(Br)o1`: the Ki turned out to be 3.12 µM.

With `Nc1cc2nc[nH]c2cc1N`, the Ki turned out to be 9.61 µM.

Turning to `CCN1C(c2ccccc2)=C(c2ccccc2)S/C1=C/C=C1\SC(=S)N(C)C1=O`, the Ki was 2.44 µM.

Regarding `N#CC(C#N)=c1ccc2c(c1)N1C(c3ccccc3)=CC(c3ccccc3)C3CCCCC31N=2` (stereo not given), the Ki amounted to 1.75 µM.
